The values below come from patent publication US20090023933A1, “METHOD FOR ISOLATING ACIDS FROM CHEMICAL REACTION MIXTURES BY USING 1-ALKYLIMIDAZOLES” (BASF Aktiengesellschaft, priority 2003, published 2009).

The nature of the series: Behavior of the 1-alkylimidazoles toward 30% strength NaCl solution (shaking funnel, phase separation, Karl-Fischer and GC analysis). As to conditions: for Solubility of free base in NaCl solution in %: free 1-alkylimidazole, 5 g imidazole shaken with 5 g solution of 30 g NaCl in 100 g water, lower phase extracted, GC with internal standard; for Solubility of water in imidazole in %: water determination on upper (imidazole) phase by Karl-Fischer titration after shaking with NaCl solution.

The structures appear in SMILES notation.

Protocol: A solution of 30 g of sodium chloride in 100 g of demineralized water was prepared. 5 g of this solution were admixed with 5 g of the imidazole derivative listed in a shaking funnel and the mixture was shaken vigorously. The phases were then separated and weighed.
The weight of the upper phase was recorded.
For the purposes of analysis, a water determination was carried out on the upper phase (by Karl-Fischer titration). The lower phase was, if present, separated off, admixed with 1N KOH solution and extracted twice with xylene. After drying over magnesium sulfate, an internal standard (heptadecane) was added and the amount of dissolved imidazole was backcalculated after GC analysis.

On to `CCn1ccnc1` [Et (comp.)], for which the “Solubility of free base in NaCl solution in %” value (from here on “Solubility of free base … in %”) is on record as 100% and the “Solubility of water in imidazole in %” value is given as “ca. 50%”.

Take `Cn1ccnc1` [Me (comp.)]: the “Solubility of free base … in %” value stood at 100% and the “Solubility of water in imidazole in %” value is recorded as “ca. 50%”.

As for `CCCCn1ccnc1` [nBu, n-butylimidazole], the “Solubility of free base … in %” value came to 0.2% and the “Solubility of water in imidazole in %” value worked out at 16%.

In the case of `CCCn1ccnc1` [nPr, n-propylimidazole], the “Solubility of free base … in %” value came to 3% and the “Solubility of water in imidazole in %” value is listed as 30%.
